The values that follow come from patent US12077608B2, “Stapled H2 pyrin peptides” (H. LEE MOFFITT CANCER CENTER AND RESEARCH INSTITUTE, INC., priority 2018, dated 2024).

Data set [1] has as its target T1, GST-NLRP3^PYD (Homo sapiens, UniProt Q96P20).
T1 construct: human NLRP3 (residues 3-110) was cloned into a pET-21b vector; made in house; host or cells: E. coli BL21 DE3
Briefly: KD (μM) | GST-NLRP3^PYD. The text has this:
(§1) Table printed on a drawing sheet, FIG. 10
Head of the field: KD (μM) | GST-NLRP3^PYD
(§2) The patent's description of the figure: FIG. 10 is a table showing the results from a fluorescence anisotropy binding assay to determine the accurate binding affinities of stapled peptides fPOP1-H2 (SEQ ID NO: 2), fSAH-POP1-1 (SEQ ID NO: 1), fSAH-POP1-3 (SEQ ID NO: 3), fSAH-POP1-4 (SEQ ID NO: 4), fSAH-POP1-5 (SEQ ID NO: 5), fSAH-POP1-6 (SEQ ID NO: 6), fSAH-POP1-7 (SEQ ID NO: 7), fSAH-POP1-8 (SEQ ID NO: 8), fSAH-POP1-9 (SEQ ID NO: 9), fSAH-POP1-10 (SEQ ID NO: 10), fSAH-POP1-11 (SEQ ID NO: 11), fSAH-POP1-12 (SEQ ID NO: 12), fSAH-POP1-13 (SEQ ID NO: 13), fSAH-POP1-14 (SEQ ID NO: 14), fSAH-POP1-15 (SEQ ID NO: 15), fSAH-POP1-16 (SEQ ID NO: 16), fSAH-POP1-17 (SEQ ID NO: 17), fSAH-POP1-18 (SEQ ID NO: 18), fSAH-POP1-19 (SEQ ID NO: 19), fSAH-POP1-20 (SEQ ID NO: 20), fSAH-POP1-21 (SEQ ID NO: 21), fSAH-POP1-22 (SEQ ID NO: 22), fSAH-POP1-23 (SEQ ID NO: 23), fSAH-POP1-24 (SEQ ID NO: 24), fSAH-POP1-25 (SEQ ID NO: 25), fSAH-POP1-26 (SEQ ID NO: 26), fSAH-POP1-27 (SEQ ID NO: 27), fSAH-POP1-28 (SEQ ID NO: 28), fSAH-POP1-29 (SEQ ID NO: 29), fSAH-POP1-30 (SEQ ID NO: 30), fSAH-POP1-31 (SEQ ID NO: 31).
(§3) First copying reader's note: Second part of the same figure; in the structures S5, NL (N with lowered L) and NH2 carry lowered signs, a drawn bracket joins the two S5 residues (staple), and the SEQ ID NO column is printed outside the table frame.
Where the first naming reader finds the target: head: GST-NLRP3^PYD

For data set [2], the target named is T2, GST-ASC^PYD (Homo sapiens, UniProt Q9ULZ3).
T2 construct: human ASC (residues 1-106) was cloned into a pGEX-4T1 vector; made in house; host or cells: E. coli BL21 DE3
Kind of data set: KD (μM) | GST-ASC^PYD.
Source text: as §1
Head of the field: KD (μM) | GST-ASC^PYD
as §2, §3
Where the first naming reader finds the target: head: GST-ASC^PYD

Data set [3] has as its system ASC speck formation in THP-1 ASC-GFP cells. Briefly: ASC speck assay, live-cell imaging. Type of data set: cell-based, Human. The following applies: for ASC speck formation remaining with inhibitor: 5 μM peptide, nigericin at 5 μM gives 38%. Here is the method: ASC speck is a hallmark of inflammasome formation (Dick et al., 2016; Hoss et al., 2017) and observable by microscopy (Doyle et al., 2012; Stutz et al., 2013). THP-1 ASC-GFP cells stably expressing the ASC-GFP fusion protein (InvivoGen Catalog #: thp-ascgfp) were used to visualize the inhibitory effect of SAH-POP1-4 on ASC specks formation (Fernandes-Alnemri et al., 2007).
Experimental Procedure for ASC Speck Assay. THP1 ASC-GFP cells were seeded at 2×10^6/ml (0.7-1 mL) in RPMI1640 medium with 10% FCS in FluoroDish (FD35-100) and cultivated in the presence of 50 nM phorbol-12-myristate-13-acetate (PMA) for 24 h, then media was replaced by fresh media and incubated for 24 h. Then cells were stimulated with 200 ng/ml LPS from E. coli (sigma) for 3 h. The media was removed and replaced with serum-free medium (OptiMEM) containing DMSO (1:1,000), 20 μM inhibitors for 30 min. […] Control samples were incubated with media lacking LPS or nigericin. Then, ASC specks were tested by confocal microscopy SP8 (Leica Microsystems).
ASC speck is the hallmark of inflammasome formation and observable by microscopy. THP-1 ASC-GFP cells stably expressing the ASC-GFP fusion protein (InvivoGen Catalog #: thp-ascgfp) were used to visualize the inhibitory effect of SAH-POP1-17 on ASC specks formation (Fernandes-Alnemri et al., 2007). […] SAH-POP1-17 at 5 μM inhibited ASC speck formation to 4%, and SAH-POP1-18 at 5 μM inhibited ASC speck formation to 8%.

A short description of data set [4]: Circular dichroism (CD) secondary structure of the peptides. Format: physicochemical. The following applies: aqueous solution; 100 μM peptide in 10 mM potassium phosphate, 100 mM potassium fluoride buffer (pH=7.5). The method, then:
Circular dichroism (CD) was used to determine the secondary structure of the peptides. […] Hydrocarbon stapling promoted α-helix contents with SAH-POP1-4 and SAH-POP1-8 having the highest in aqueous solution.
CD spectra were recorded on an AVIV Model 215 Circular Dichroism Spectrometer. Each spectrum was collected with the wavelength between 190 to 260 nm, 0.5 nm increments, and 0.5 s averaging time using a 1-mm path length cell. The peptide concentration was 100 μM in 10 mM potassium phosphate and 100 mM potassium fluoride buffer (pH=7.5). The studied peptides were completely dissolved in this buffer. CD spectra were initially plotted as wavelength versus millidgree, the default output of the instrument. Once the precise peptide concentration was confirmed, the mean residue ellipticity [Θ] was calculated for the y-axis.
Background: Circular dichroism is the unequal absorption of left and right circularly polarised light.

Bridge positions count the residues as written; N and C are the ends. Square brackets hold non-standard residues; d marks the D form. Ends that are not written are not given here. Peptide text beside a SMILES is read from it. * marks the point of attachment. FITC = O=C1OC2(c3ccc(O)cc3Oc3cc(O)ccc32)c2ccc(NC(=S)*)cc21; S5 = C=CCCC[C@](C)(N)C(=O)O; Nle = CCCC[C@H](N)C(=O)O; βAla = NCCC(=O)O

T1 sequence (Q96P20 3-110): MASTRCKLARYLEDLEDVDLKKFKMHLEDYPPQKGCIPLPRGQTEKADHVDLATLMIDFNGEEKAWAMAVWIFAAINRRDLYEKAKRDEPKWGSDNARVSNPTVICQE
T2 sequence (Q9ULZ3 1-106): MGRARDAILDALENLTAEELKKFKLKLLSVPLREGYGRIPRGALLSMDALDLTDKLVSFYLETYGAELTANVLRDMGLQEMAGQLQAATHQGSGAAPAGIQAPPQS

One may read the Kd as the equilibrium constant for the complex coming apart. `CCCC[C@H](NC(=O)[C@H](Cc1c[nH]c2ccccc12)NC(=O)[C@H](CCC(N)=O)NC(=O)[C@]1(C)CCCC=CCCC[C@](C)(NC(=O)[C@H](CCC(N)=O)NC(=O)CCNC(=S)Nc2ccc3c(c2)C(=O)OC32c3ccc(O)cc3Oc3cc(O)ccc32)C(=O)N[C@@H](CO)C(=O)N[C@@H](CCCNC(=N)N)C(=O)N[C@@H](CCCNC(=N)N)C(=O)N1)C(=O)N[C@@H](CCC(N)=O)C(=O)N[C@@H](Cc1c[nH]c2ccccc12)C(=O)N[C@H](C(=O)N[C@@H](C)C(N)=O)[C@@H](C)O` [fSAH-POP1-26] ({FITC-βAla}-Q[S5]SRR[S5]QW[Nle]QWTA-NH2; staple 2-6): the Kd in data set [1] is 11 ± 1.1 µM; in data set [2] it was 5 ± 0.79 µM.
For `CCCC[C@H](NC(=O)[C@H](Cc1c[nH]c2ccccc12)NC(=O)[C@H](CCCCN)NC(=O)[C@]1(C)CCCC=CCCC[C@](C)(NC(=O)[C@H](CCC(N)=O)NC(=O)CCNC(=S)Nc2ccc3c(c2)C(=O)OC32c3ccc(O)cc3Oc3cc(O)ccc32)C(=O)N[C@@H](CO)C(=O)N[C@@H](CCCNC(=N)N)C(=O)N[C@@H](CCCNC(=N)N)C(=O)N1)C(=O)N[C@@H](CCC(N)=O)C(=O)N[C@@H](Cc1c[nH]c2ccccc12)C(=O)N[C@H](C(=O)N[C@@H](C)C(N)=O)[C@@H](C)O` [fSAH-POP1-27] ({FITC-βAla}-Q[S5]SRR[S5]KW[Nle]QWTA-NH2; staple 2-6) the same measures were 7.9 ± 1.1 µM and 3.9 ± 0.68 µM.
`CCCC[C@H](NC(=O)[C@H](Cc1c[nH]c2ccccc12)NC(=O)[C@H](CCC(N)=O)NC(=O)[C@]1(C)CCCC=CCCC[C@](C)(NC(=O)[C@H](CCC(N)=O)NC(=O)CCNC(=S)Nc2ccc3c(c2)C(=O)OC32c3ccc(O)cc3Oc3cc(O)ccc32)C(=O)N[C@@H](CC(C)C)C(=O)N[C@@H](CCCNC(=N)N)C(=O)N[C@@H](CCCNC(=N)N)C(=O)N1)C(=O)N[C@@H](CC(C)C)C(=O)NCC(=O)N[C@H](C(=O)N[C@@H](C)C(N)=O)[C@@H](C)O` [fSAH-POP1-28] ({FITC-βAla}-Q[S5]LRR[S5]QW[Nle]LGTA-NH2; staple 2-6): the Kd in data set [1] stood at 7.7 ± 1.5 µM; in data set [2] it was 7.2 ± 1.1 µM.
For the compound `CCCC[C@H](NC(=O)[C@H](Cc1c[nH]c2ccccc12)NC(=O)[C@H](CCC(N)=O)NC(=O)[C@]1(C)CCCC=CCCC[C@](C)(NC(=O)[C@H](CCC(N)=O)NC(=O)CCNC(=S)Nc2ccc3c(c2)C(=O)OC32c3ccc(O)cc3Oc3cc(O)ccc32)C(=O)N[C@@H](CC(C)C)C(=O)N[C@@H](CCCNC(=N)N)C(=O)N[C@@H](CCCNC(=N)N)C(=O)N1)C(=O)N[C@@H](CC(C)C)C(=O)N[C@@H](CC(=O)O)C(=O)N[C@H](C(=O)N[C@@H](C)C(N)=O)[C@@H](C)O` [fSAH-POP1-29] ({FITC-βAla}-Q[S5]LRR[S5]QW[Nle]LDTA-NH2; staple 2-6), the Kd stood at 6 ± 0.92 µM in data set [1] and 5.5 ± 0.69 µM in data set [2].
In the case of `CCCC[C@H](NC(=O)[C@H](Cc1c[nH]c2ccccc12)NC(=O)[C@H](CCC(N)=O)NC(=O)[C@]1(C)CCCC=CCCC[C@](C)(NC(=O)[C@H](CCC(N)=O)NC(=O)CCNC(=S)Nc2ccc3c(c2)C(=O)OC32c3ccc(O)cc3Oc3cc(O)ccc32)C(=O)N[C@@H](CC(C)C)C(=O)N[C@@H](CCCNC(=N)N)C(=O)N[C@@H](CCCNC(=N)N)C(=O)N1)C(=O)N[C@@H](CC(C)C)C(=O)N[C@@H](CC(N)=O)C(=O)N[C@H](C(=O)N[C@@H](C)C(N)=O)[C@@H](C)O` [fSAH-POP1-30] ({FITC-βAla}-Q[S5]LRR[S5]QW[Nle]LNTA-NH2; staple 2-6), the equilibrium dissociation constant (Kd) was 6.7 ± 1.2 µM in data set [1] and 7.5 ± 1.1 µM in data set [2].
For `CCCC[C@H](NC(=O)[C@H](Cc1c[nH]c2ccccc12)NC(=O)[C@H](CCC(N)=O)NC(=O)[C@]1(C)CCCC=CCCC[C@](C)(NC(=O)[C@H](CCC(N)=O)NC(=O)CCNC(=S)Nc2ccc3c(c2)C(=O)OC32c3ccc(O)cc3Oc3cc(O)ccc32)C(=O)N[C@@H](CC(C)C)C(=O)N[C@@H](CCCNC(=N)N)C(=O)N[C@@H](CCCNC(=N)N)C(=O)N1)C(=O)N[C@@H](CC(C)C)C(=O)N[C@@H](CO)C(=O)N[C@H](C(=O)N[C@@H](C)C(N)=O)[C@@H](C)O` [fSAH-POP1-31] ({FITC-βAla}-Q[S5]LRR[S5]QW[Nle]LSTA-NH2; staple 2-6) the same measures were 4.7 ± 0.54 µM and 7.8 ± 1.1 µM.
Turning to `CO[C@@H]1C[C@@H](C[C@H]2CC[C@H](C)[C@H]([C@@H](C)C(=O)O)O2)O[C@]2(O[C@](C)([C@H]3CC[C@@](C)([C@@H]4O[C@@H]([C@H]5O[C@@](O)(CO)[C@H](C)C[C@@H]5C)C[C@@H]4C)O3)C[C@H]2C)[C@@H]1C` [nigericin, reference compound], in data set [3] (nigericin at 2 μM), the “activation of ASC speck formation” value is on record as “activated ASC speck formation”. The “ASC speck formation activated” value in data set [3] (nigericin at 5 μM, no inhibitor) was found to be 38%.
As for “POP1-H2: Reference peptide, unstapled, amino acid sequence EELKKFKMKLGTV [reference compound]”, in data set [4], the “α-helical structure / α-helix contents by circular dichroism” value was “does not exhibit α-helical structure”.
Take “SAH-POP1-17: Stapled peptide synthesized by FIG. 11, SEQ ID NO: 44 (QXLRRXQWXLWTA; hydrocarbon staple; (2)..(2) X= S5=(S)-2-(4-pentenyl)alanineS5, the two Xs are also directly connected by a double bond; (6)..(6) X= S5=(S)-2-(4-pentenyl)alanineS5, the two Xs are also directly connected by a double bond; (9)..(9) X= NL = norleucine)”: the “ASC speck formation remaining with inhibitor” value in data set [3] is 4%.
On the same count and under the same terms, the value for “SAH-POP1-18: Stapled peptide synthesized by FIG. 11, SEQ ID NO: 45 (Q[S5]LRR[S5]QWFLWTA-NH2; staple 2-6; N-terminus assumed; SMILES CC(C)C[C@H](NC(=O)[C@H](Cc1ccccc1)NC(=O)[C@H](Cc1c[nH]c2ccccc12)NC(=O)[C@H](CCC(N)=O)NC(=O)[C@]1(C)CCCC=CCCC[C@](C)(NC(=O)[C@@H](N)CCC(N)=O)C(=O)N[C@@H](CC(C)C)C(=O)N[C@@H](CCCNC(=N)N)C(=O)N[C@@H](CCCNC(=N)N)C(=O)N1)C(=O)N[C@@H](Cc1c[nH]c2ccccc12)C(=O)N[C@H](C(=O)N[C@@H](C)C(N)=O)[C@@H](C)O)” was 8%.
